# Laboratory results as given in patent US11654136B2, “Phosphoinositide 3-kinase inhibitor with a zinc binding moiety” (Curis, Inc., priority 2011, dated 2023).
# “Also recorded” adds a separate entry of the source. Like-named read-outs stand apart in the source and are kept apart here.
# Columns and labels:
# [1] = Pharmacokinetics in SCID mice bearing Daudi tumors; assay type: in vivo; conditions: for Area under the Curve / Half-life / Cmax / Tmax: oral gavage; for Area under the Curve / Cmax / Tmax: dose not stated; for Half-life: dose of the table not stated (25, 50 or 100 mg/kg); for Cmax / Tmax: female, mouse
# Description: Daudi (non-Hodgkin's lymphoma cell line) cells were implanted into female Scid (severe […] immune-deficient) mice.
# At various time points following compound administration, three mice per time point were euthanized with CO2, and blood and tumor tissues were collected. Blood was collected into tubes containing sodium heparin. The plasma was separated via centrifugation. Plasma and tissues were stored at −80° C. for later analysis. A PE Sciex API-3000 LC-MS/MS system (Applied Biosystems, Inc., Foster City, Calif.) was used to analyze compound concentrations in plasma.
# [2] = tested on: HDAC activity (Ac-H3, Ac-Tub, Ac-p53, p53, p21) in H460 cells; test: Western blot / in-cell-western of HDAC markers in H460 cells; assay type: cell-based
# Description: (§1) Cell extracts were prepared in the presence of SDS and 2-mercaptoethanol and resolved in polyacrylamide gels. Proteins were transferred to nitrocellulose filter and blotting was done using standard procedures with blocking solutions (Li-Cor Bioscience) containing the indicated primary antibody. Primary antibodies against p-EGFR, EGFR, p-HER2, HER2, p-HER3, HER3, p-MET, MET, p-bRaf, p-cRaf, pMEK, MEK, p-ERK, ERK and tubulin were purchased from Cell Signaling Technology. Secondary antibody conjugated with IRdye 680, 800CW were used and the signal was detected with Li-Cor Odyssey Imager.
# (§2) Immunocytochemistry was performed on cells grown in monolayer culture that were treated as indicated in the figure legends and then fixed in 4% (w/v) paraformaldehyde. After washing in 1×PBS, immunostaining was performed in Li-Cor blocking solution containing the indicated primary antibodies and IRDye 680- or 800CW-conjugated secondary antibodies. For in-cell-western, a Li-Cor Odyssey infrared imager was used for detection and quantification of results.
# (§3) Cells were treated with DMSO alone (vehicle control) or containing test compounds for 1 h before Western blot or in-cell-western was performed.
# [3] = tested on: PI3K pathway signaling (AKT, 4EBP-1, p70S6) in H460 cells; test: Western blot / in-cell-western of PI3K pathway signaling in H460 cells; assay type: cell-based
# Description: as §1, §2, §3
# [4] = tested on: Salmonella typhimurium TA100
# Description: The tester strains used in the mutagenicity assay were Salmonella typhimurium tester strains TA98 (for detecting frame-shift reverse mutation) and TA100 (for detecting point reverse mutation). The assay was conducted in both the presence and absence of S9 mixture along with concurrent vehicle (DMSO, 20 μl/well) and positive controls in duplicate using 6-well plates. […] A reproducible two-fold increase (>2× of vehicle control) of revertant colonies over the daily average control value is considered a positive response of gene mutation for each strain.
# 2-nitrofluorene and sodium azide served as the positive controls in the absence of S9 for TA98 and TA100 respectively. 2-Aminoanthracene served as the positive controls in the presence of S9 for TA98 and TA100.
# [5] = Pharmacokinetic study in rats; assay type: in vivo; conditions: rat, single oral gavage 20 mg/kg, male Sprague-Dawley rats, plasma
# Description: The resulting clear yellow solution was stored at room temperature until picked up for dosing.
# Three male Sprague-Dawley rats from Charles River Laboratories were used in this study. High fat diet (VHFD, D12492i) from Research Diets Inc. were provided ad libitum throughout the in-life portion of the study.
# Blood samples (approximate volume 150 μL) were collected tail vein at 0.25, 0.5, 1, 3, 6, and 24 hours postdose. Blood samples were placed into tubes containing sodium heparin and centrifuged at 8000 rpm for 6 minutes at 4° C. to separate plasma from the samples. Following centrifugation, the resulting plasma was transferred to clean tubes and stored frozen at −80° C. pending bioanalysis.
# The pharmacokinetic parameters were determined from mean concentration-time data in the test subjects. A compartmental modeling of WINNONILIN® Professional 5.2. was used to calculate parameters. Any concentrations that were below the limit of quantitation (lower limit of quantitation=1 ng/mL) were omitted from the calculation of parameters in individual animals.
# [6] = tested on: SU-DHL4 (diffuse large B-cell lymphoma cell line) xenograft tumors; test: SU-DHL4 xenograft tumor model; assay type: in vivo, nude mice
# Description: SU-DHL4 (diffuse large B-cell lymphoma cell line), H2122 (human NSCLC cell line), Daudi (non-Hodgkin's lymphoma cell line), and OPM2 (multiple myeloma tumor cell line) cells were implanted into either nude or Scid (severe […] immune-deficient) mice. […]. […] The control groups were treated with vehicle using the same dosing schedule as the corresponding active group.
# In another study, the Daudi tumor group was dosed at 50 mg/Kg twice a day for five days per week. […] The SU-DHL4 tumor group was dosed at 100 mg/Kg orally or 50 mg/Kg intravenously.
# Tumors were measured during the study period with an electronic caliper, and body weights were measured twice a week. The following formula was used to calculate the tumor volume: […] Percentage of tumor volume change was used to describe compound activity over the treatment period.
# glioblastoma xenografts = conditions: oral dosage; Folkes et al. 2008; cited from earlier work
# [7] = Plasma, Daudi tumor-bearing Scid mice
compound,measurement,setting,value
"COc1ccc(-c2nc(N3CCOCC3)c3sc(CN(C)c4ncc(C(=O)NO)cn4)cc3n2)cn1 [Compound 1, N-hydroxy-2-(((2-(6-methoxypyridin-3-yl)-4-morpholinothieno[3,2-d]pyrimidin-6-yl)methyl)(methyl)amino)pyrimidine-5-carboxamide]",Area under the Curve,[1]; [7],1899.26 ng/mL * hr
same,Half-life,[1]; [7],464 min
same,Area under the Curve,[1]; Tumor,3973.56 ng/mL * hr
same,Half-life,[1]; Tumor,757.2 min
same,Cmax,[1]; Tumor,1040 ng/mL
same,Tmax,[1]; Tumor,6 min
same,Cmax,[1]; [7],2290 ng/mL
same,Tmax,[1]; [7],14.4 min
same,Distribution between plasma and tumor tissue,"[1]; oral 25, 50 and 100 mg/kg",preferentially accumulates in tumor tissue in a dose dependent manner
same,Plasma exposure versus dose,"[1]; oral 25, 50 and 100 mg/kg, Daudi tumor-bearing Scid mice",dose-dependent exposure
same,"Levels of acetylated-tubulin, histone 3, p53 and p21 versus dose",[2],"increases levels of acetylated-tubulin (FIG. 7B), acetylated histone 3 (FIG. 7C), acetylated p53 (FIG. 7D), and acetylated p21 (FIG. 7E) in a dose-dependent manner"
same,Total p53 and p21 content,[2],upregulates total p53 and p21 content
same,"Levels of acetylated histone 3, tubulin and p53","[2]; 1 μmon, 1 h","increases the levels of acetylated histone 3 (Ac-H3), tubulin (Ac-Tub), and p53 (Ac-p53)"
same,Phosphorylation of Akt,[3],persistently and potently inhibits phosphorylation of Akt in a dose-dependent manner
same,"Activation of AKT, 4EBP-1 and p70S6",[3]; 1 μmon,inhibits the activation of AKT and the downstream signaling proteins 4EBP-1 and p70S6
same,Background Lawn TA100,"[4]; +S9, 62.5 μg/well",4/4
same,"Revertants per well TA100, Mean","[4]; +S9, 62.5 μg/well",32
same,"Revertants per well TA100, well 1","[4]; +S9, 62.5 μg/well",34
same,"Revertants per well TA100, well 2","[4]; +S9, 62.5 μg/well",30
same,Background Lawn TA100,"[4]; +S9, 125 μg/well",4/4
same,"Revertants per well TA100, Mean","[4]; +S9, 125 μg/well",29
same,"Revertants per well TA100, well 1","[4]; +S9, 125 μg/well",28
same,"Revertants per well TA100, well 2","[4]; +S9, 125 μg/well",30
same,Background Lawn TA100,"[4]; +S9, 250 μg/well",4/4
same,"Revertants per well TA100, Mean","[4]; +S9, 250 μg/well",29
same,"Revertants per well TA100, well 1","[4]; +S9, 250 μg/well",30
same,"Revertants per well TA100, well 2","[4]; +S9, 250 μg/well",28
same,Background Lawn TA100,"[4]; +S9, 500 μg/well","3,sp/3,sp"
same,"Revertants per well TA100, Mean","[4]; +S9, 500 μg/well",35
same,"Revertants per well TA100, well 1","[4]; +S9, 500 μg/well",32
same,"Revertants per well TA100, well 2","[4]; +S9, 500 μg/well",37
same,Background Lawn TA100,"[4]; +S9, 1000 μg/well","3,mp/3,mp"
same,"Revertants per well TA100, Mean","[4]; +S9, 1000 μg/well",34
same,"Revertants per well TA100, well 1","[4]; +S9, 1000 μg/well",33
same,"Revertants per well TA100, well 2","[4]; +S9, 1000 μg/well",34
same,Mutagenic response TA100,"[4]; presence and absence of S9, up to 1000 μg/well",no evidence of a significant increase in the mean number of revertant colonies; also recorded: did not induce a positive mutagenic response
same,Background Lawn TA100,"[4]; −S9, 62.5 μg/well",4/4
same,"Revertants per well TA100, Mean","[4]; −S9, 62.5 μg/well",32
same,"Revertants per well TA100, well 1","[4]; −S9, 62.5 μg/well",34
same,"Revertants per well TA100, well 2","[4]; −S9, 62.5 μg/well",30
same,Background Lawn TA100,"[4]; −S9, 125 μg/well",4/4
same,"Revertants per well TA100, Mean","[4]; −S9, 125 μg/well",33
same,"Revertants per well TA100, well 1","[4]; −S9, 125 μg/well",32
same,"Revertants per well TA100, well 2","[4]; −S9, 125 μg/well",34
same,Background Lawn TA100,"[4]; −S9, 250 μg/well","4,sp/4,sp"
same,"Revertants per well TA100, Mean","[4]; −S9, 250 μg/well",32
same,"Revertants per well TA100, well 1","[4]; −S9, 250 μg/well",34
same,"Revertants per well TA100, well 2","[4]; −S9, 250 μg/well",29
same,Background Lawn TA100,"[4]; −S9, 500 μg/well","3,sp/3,sp"
same,"Revertants per well TA100, Mean","[4]; −S9, 500 μg/well",32
same,"Revertants per well TA100, well 1","[4]; −S9, 500 μg/well",33
same,"Revertants per well TA100, well 2","[4]; −S9, 500 μg/well",31
same,Background Lawn TA100,"[4]; −S9, 1000 μg/well","3,mp/3,mp"
same,"Revertants per well TA100, Mean","[4]; −S9, 1000 μg/well",27
same,"Revertants per well TA100, well 1","[4]; −S9, 1000 μg/well",28
same,"Revertants per well TA100, well 2","[4]; −S9, 1000 μg/well",26
same,AUC(0-inf),[5],164 ng·h/mL
same,Cmax,[5],39.5 ng/mL
same,Tmax,[5],6 min
same,Half-life,[5]; read-out: half-life (T1/2) (converted),702 min
same,Tumor growth,[6]; intravenous (IV) 50 mg/kg,strongly inhibited tumor growth
same,Tumor growth,[6]; orally (PO) 100 mg/kg,strongly inhibited tumor growth
"CS(=O)(=O)N1CCN(Cc2cc3nc(-c4cccc5[nH]ncc45)nc(N4CCOCC4)c3s2)CC1 [GDC-0941, reference compound]",Tumor suppression,glioblastoma xenografts,tumor suppression
